Test results reported in patent US20100298141A1, “SUBSTITUTED PYRIDINE N-OXIDE HERBICIDES” (E. I. DU PONT DE NEMOURS AND COMPANY, priority 2007, published 2010).

What was measured:
Assay in all cases: Test F preemergence test
guineagrass = type: in vivo, Panicum maximum; settings: scale 0 to 100
Outline: (§1)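 Greenhouse screen: test chemical in surfactant-containing non-phytotoxic solvent applied preemergence to sown seeds or postemergence to sugarcane plants; after 14 to 21 days each species scored visually versus controls.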

quackgrass = type: in vivo, Elytrigia repens; settings: scale 0 to 100
Outline: as §1

goosegrass = type: in vivo, Eleusine indica; settings: scale 0 to 100
Outline: as §1

kochia = type: in vivo, Kochia scoparia; settings: scale 0 to 100
Outline: as §1

dallisgrass = type: in vivo, Paspalum dilatatum; settings: scale 0 to 100
Outline: as §1

common purslane = type: in vivo, Portulaca oleracea; settings: scale 0 to 100
Outline: as §1

Virginia dayflower = type: in vivo, Commelina virginica; settings: 16 g ai/ha, preemergence; scale 0 to 100
Outline: as §1

naked crabgrass = type: in vivo, Digitaria nuda; settings: scale 0 to 100
Outline: as §1

bermudagrass = type: in vivo, Cynodon dactylon; settings: scale 0 to 100
Outline: as §1

johnsongrass = type: in vivo, Sorghum halepense; settings: scale 0 to 100
Outline: as §1

Italian ryegrass = type: in vivo, Lolium multiflorum; settings: scale 0 to 100
Outline: as §1

itchgrass = type: in vivo, Rottboellia cochinchinensis; settings: scale 0 to 100
Outline: as §1

mustard = type: in vivo, Brassica nigra; settings: scale 0 to 100
Outline: as §1

pitted morningglory = type: in vivo, Ipomoea lacunosa; settings: scale 0 to 100
Outline: as §1

Surinam grass = type: in vivo, Brachiaria decumbens; settings: scale 0 to 100
Outline: as §1

large crabgrass = type: in vivo, Digitaria sanguinalis; settings: scale 0 to 100
Outline: as §1

prickly sida = type: in vivo, Sida spinosa; settings: scale 0 to 100
Outline: as §1

barnyardgrass = type: in vivo, Echinochloa crus-galli
Outline: as §1

broadleaf signalgrass = type: in vivo, Brachiaria platyphylla; settings: scale 0 to 100
Outline: as §1

common groundsel = type: in vivo, Senecio vulgaris; settings: scale 0 to 100
Outline: as §1

common ragweed = type: in vivo, Ambrosia elation; settings: scale 0 to 100
Outline: as §1

Question: Cn1nc(C(F)(F)F)c(C[S+]([O-])c2ccc(Cl)c[n+]2[O-])c1OCC(F)(F)F (racemic) [Compound 62] was tested. Which “Plant response rating, Guineagrass” value (guineagrass; 16 g ai/ha, preemergence) did it give?
Answer: Its value is 70.

Question: What about the “Guineagrass plant response rating” value (guineagrass; 62 g ai/ha, Preemergence) of the same molecule?
Answer: The value was 100.

Question: What about the “Guineagrass plant response rating” value (guineagrass; 125 g ai/ha, preemergence) of the same molecule?
Answer: The value was 100.

Question: And the “Plant response rating, Guineagrass” value (guineagrass; Preemergence, 31 g ai/ha)?
Answer: The value was 80.

Question: What about the “Plant response rating, Quackgrass” value (quackgrass; 16 g ai/ha, preemergence) of the same molecule?
Answer: The value was 40.

Question: What about the “Quackgrass plant response rating” value (quackgrass; 62 g ai/ha, Preemergence) of the same molecule?
Answer: Its value is 75.

Question: What about the “Quackgrass plant response rating” value (quackgrass; 125 g ai/ha, preemergence) of the same molecule?
Answer: The value was 98.

Question: And the “Plant response rating, Quackgrass” value (quackgrass; Preemergence, 31 g ai/ha)?
Answer: Its value is 75.

Question: And the “Plant response rating, Goosegrass” value (goosegrass; 16 g ai/ha, preemergence)?
Answer: Its value is 50.

Question: And the “Goosegrass plant response rating” value (goosegrass; 62 g ai/ha, Preemergence)?
Answer: Its value is 98.

Question: And the “Goosegrass plant response rating” value (goosegrass; 125 g ai/ha, preemergence)?
Answer: Its value is 100.

Question: And the “Plant response rating, Goosegrass” value (goosegrass; Preemergence, 31 g ai/ha)?
Answer: Its value is 65.

Question: What about the “Plant response rating, Kochia” value (kochia; 16 g ai/ha, preemergence) of the same molecule?
Answer: The value was 0.

Question: What about the “Kochia plant response rating” value (kochia; 62 g ai/ha, Preemergence) of the same molecule?
Answer: Its value is 15.

Question: And the “Kochia plant response rating” value (kochia; 125 g ai/ha, preemergence)?
Answer: The value was 100.

Question: And the “Plant response rating, Kochia” value (kochia; Preemergence, 31 g ai/ha)?
Answer: The value was 0.

Question: What about the “Plant response rating, Dallisgrass” value (dallisgrass; 16 g ai/ha, preemergence) of the same molecule?
Answer: The value was 0.

Question: What about the “Dallisgrass plant response rating” value (dallisgrass; 62 g ai/ha, Preemergence) of the same molecule?
Answer: Its value is 98.

Question: What about the “Dallisgrass plant response rating” value (dallisgrass; 125 g ai/ha, preemergence) of the same molecule?
Answer: Its value is 98.

Question: What about the “Plant response rating, Dallisgrass” value (dallisgrass; Preemergence, 31 g ai/ha) of the same molecule?
Answer: The value was 60.

Question: And the “Plant response rating, Purslane” value (common purslane; 16 g ai/ha, preemergence)?
Answer: The value was 15.

Question: What about the “Purslane plant response rating” value (common purslane; 62 g ai/ha, Preemergence) of the same molecule?
Answer: Its value is 60.

Question: What about the “Purslane plant response rating” value (common purslane; 125 g ai/ha, preemergence) of the same molecule?
Answer: Its value is 75.

Question: And the “Plant response rating, Purslane” value (common purslane; Preemergence, 31 g ai/ha)?
Answer: Its value is 40.

Question: And the “Plant response rating, Dayflower” value (Virginia dayflower)?
Answer: The value was 0.

Question: And the “Plant response rating, Crabgrass, Naked” value (naked crabgrass; 16 g ai/ha, preemergence)?
Answer: The value was 90.

Question: And the “Crabgrass, Naked plant response rating” value (naked crabgrass; 62 g ai/ha, Preemergence)?
Answer: Its value is 100.

Question: What about the “Crabgrass, Naked plant response rating” value (naked crabgrass; 125 g ai/ha, preemergence) of the same molecule?
Answer: Its value is 100.

Question: What about the “Plant response rating, Crabgrass, Naked” value (naked crabgrass; Preemergence, 31 g ai/ha) of the same molecule?
Answer: Its value is 90.

Question: And the “Plant response rating, Bermudagrass” value (bermudagrass; 16 g ai/ha, preemergence)?
Answer: Its value is 20.

Question: What about the “Bermudagrass plant response rating” value (bermudagrass; 62 g ai/ha, Preemergence) of the same molecule?
Answer: The value was 75.

Question: What about the “Bermudagrass plant response rating” value (bermudagrass; 125 g ai/ha, preemergence) of the same molecule?
Answer: The value was 100.

Question: And the “Plant response rating, Bermudagrass” value (bermudagrass; Preemergence, 31 g ai/ha)?
Answer: The value was 20.

Question: And the “Plant response rating, Johnsongrass” value (johnsongrass; 16 g ai/ha, preemergence)?
Answer: Its value is 20.

Question: And the “Johnsongrass plant response rating” value (johnsongrass; 62 g ai/ha, Preemergence)?
Answer: The value was 100.

Question: And the “Johnsongrass plant response rating” value (johnsongrass; 125 g ai/ha, preemergence)?
Answer: Its value is 100.

Question: And the “Plant response rating, Johnsongrass” value (johnsongrass; Preemergence, 31 g ai/ha)?
Answer: The value was 80.

Question: And the “Plant response rating, Ryegrass, Italian” value (Italian ryegrass; 16 g ai/ha, preemergence)?
Answer: The value was 50.

Question: And the “Ryegrass, Italian plant response rating” value (Italian ryegrass; 125 g ai/ha, preemergence)?
Answer: The value was 100.

Question: And the “Plant response rating, Ryegrass, Italian” value (Italian ryegrass; Preemergence, 62 g ai/ha)?
Answer: The value was 100.

Question: What about the “Plant response rating, Ryegrass, Italian” value (Italian ryegrass; Preemergence, 31 g ai/ha) of the same molecule?
Answer: The value was 98.

Question: What about the “Plant response rating, Itchgrass” value (itchgrass; 16 g ai/ha, preemergence) of the same molecule?
Answer: Its value is 50.

Question: What about the “Itchgrass plant response rating” value (itchgrass; 62 g ai/ha, Preemergence) of the same molecule?
Answer: Its value is 90.

Question: And the “Itchgrass plant response rating” value (itchgrass; 125 g ai/ha, preemergence)?
Answer: The value was 98.

Question: And the “Plant response rating, Itchgrass” value (itchgrass; Preemergence, 31 g ai/ha)?
Answer: The value was 75.

Question: What about the “Plant response rating, Black Mustard” value (mustard; 16 g ai/ha, preemergence) of the same molecule?
Answer: Its value is 20.

Question: What about the “Black Mustard plant response rating” value (mustard; 62 g ai/ha, Preemergence) of the same molecule?
Answer: Its value is 90.

Question: And the “Black Mustard plant response rating” value (mustard; 125 g ai/ha, preemergence)?
Answer: Its value is 98.

Question: And the “Plant response rating, Black Mustard” value (mustard; Preemergence, 31 g ai/ha)?
Answer: The value was 0.

Question: What about the “Plant response rating, Morningglory” value (pitted morningglory; 16 g ai/ha, preemergence) of the same molecule?
Answer: Its value is 0.

Question: What about the “Morningglory plant response rating” value (pitted morningglory; 62 g ai/ha, Preemergence) of the same molecule?
Answer: The value was 75.

Question: What about the “Morningglory plant response rating” value (pitted morningglory; 125 g ai/ha, preemergence) of the same molecule?
Answer: Its value is 100.

Question: And the “Plant response rating, Morningglory” value (pitted morningglory; Preemergence, 31 g ai/ha)?
Answer: Its value is 75.

Question: What about the “Plant response rating, Surinam Grass” value (Surinam grass; 16 g ai/ha, preemergence) of the same molecule?
Answer: Its value is 60.

Question: What about the “Surinam Grass plant response rating” value (Surinam grass; 125 g ai/ha, preemergence) of the same molecule?
Answer: The value was 100.

Question: What about the “Plant response rating, Surinam Grass” value (Surinam grass; Preemergence, 62 g ai/ha) of the same molecule?
Answer: The value was 100.

Question: And the “Plant response rating, Surinam Grass” value (Surinam grass; Preemergence, 31 g ai/ha)?
Answer: Its value is 95.

Question: And the “Plant response rating, Crabgrass, Large” value (large crabgrass; 16 g ai/ha, preemergence)?
Answer: Its value is 15.

Question: And the “Crabgrass, Large plant response rating” value (large crabgrass; 62 g ai/ha, Preemergence)?
Answer: Its value is 90.

Question: And the “Crabgrass, Large plant response rating” value (large crabgrass; 125 g ai/ha, preemergence)?
Answer: Its value is 98.

Question: And the “Plant response rating, Crabgrass, Large” value (large crabgrass; Preemergence, 31 g ai/ha)?
Answer: The value was 60.

Question: And the “Plant response rating, Prickly Sida” value (prickly sida; 16 g ai/ha, preemergence)?
Answer: Its value is 15.

Question: And the “Prickly Sida plant response rating” value (prickly sida; 62 g ai/ha, Preemergence)?
Answer: Its value is 75.

Question: And the “Prickly Sida plant response rating” value (prickly sida; 125 g ai/ha, preemergence)?
Answer: The value was 95.

Question: And the “Plant response rating, Prickly Sida” value (prickly sida; Preemergence, 31 g ai/ha)?
Answer: The value was 65.

Question: What about the “Plant response rating, Barnyardgrass” value (barnyardgrass; 16 g ai/ha, preemergence, scale 0 to 100 (0 no effect, 100 complete control)) of the same molecule?
Answer: Its value is 30.

Question: And the “Barnyardgrass plant response rating” value (barnyardgrass; 62 g ai/ha, Preemergence, scale 0 to 100)?
Answer: Its value is 100.

Question: And the “Barnyardgrass plant response rating” value (barnyardgrass; 125 g ai/ha, preemergence, scale 0 to 100)?
Answer: The value was 100.

Question: And the “Plant response rating, Barnyardgrass” value (barnyardgrass; Preemergence, 31 g ai/ha, scale 0 to 100)?
Answer: Its value is 75.

Question: What about the “Plant response rating, Signalgrass” value (broadleaf signalgrass; 16 g ai/ha, preemergence) of the same molecule?
Answer: Its value is 40.

Question: And the “Signalgrass plant response rating” value (broadleaf signalgrass; 125 g ai/ha, preemergence)?
Answer: The value was 95.

Question: And the “Plant response rating, Signalgrass” value (broadleaf signalgrass; Preemergence, 62 g ai/ha)?
Answer: The value was 75.

Question: What about the “Plant response rating, Signalgrass” value (broadleaf signalgrass; Preemergence, 31 g ai/ha) of the same molecule?
Answer: Its value is 40.

Question: And the “Plant response rating, Groundsel” value (common groundsel; 16 g ai/ha, preemergence)?
Answer: The value was 0.

Question: What about the “Groundsel plant response rating” value (common groundsel; 62 g ai/ha, Preemergence) of the same molecule?
Answer: Its value is 80.

Question: What about the “Groundsel plant response rating” value (common groundsel; 125 g ai/ha, preemergence) of the same molecule?
Answer: Its value is 90.

Question: What about the “Plant response rating, Groundsel” value (common groundsel; Preemergence, 31 g ai/ha) of the same molecule?
Answer: Its value is 70.

Question: What about the “Plant response rating, Ragweed” value (common ragweed; 16 g ai/ha, preemergence) of the same molecule?
Answer: Its value is 60.

Question: And the “Ragweed plant response rating” value (common ragweed; 125 g ai/ha, preemergence)?
Answer: Its value is 80.

Question: What about the “Plant response rating, Ragweed” value (common ragweed; Preemergence, 62 g ai/ha) of the same molecule?
Answer: Its value is 70.

Question: And the “Plant response rating, Ragweed” value (common ragweed; Preemergence, 31 g ai/ha)?
Answer: Its value is 60.
